From the supplement of paper PMC10307832

Assays:
Test in all cases: relative viability (nuclei count vs DMSO), 5 days (fraction); higher = more cells survive
[1] = compound: COc1cc2ncn(-c3cc(OCc4ccccc4C(F)(F)F)c(C(N)=O)s3)c2cc1OC
Summary of the method: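 Five library-drug doses, separated by factors of √10, were pinned into 1536-well plates holding lung cancer cell lines after an overnight stay at 37 °C. Cells were fixed, permeabilised and Hoechst-stained in one step after 5 days without medium change, then imaged at 4×. Viability compares treated-well with vehicle-well nuclei, counted in MetaXpress, as a median across plates. Passing plates had control CV below 25% and at least one doubling.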

[2] = compound: COc1cc2ncn(-c3cc(OCc4ccccc4C(F)(F)F)c(C(N)=O)s3)c2cc1OC + O=C(c1cc(Cc2n[nH]c(=O)c3ccccc23)ccc1F)N1CCN(C(=O)C2CC2)CC1 [Olaparib] (partner 8 µM)
Summary of the method: (§1)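 Relative viability divides the nuclei count in treated wells by that in vehicle wells. Lung cancer cell lines were seeded in 1536-well plates, dosed by pin tool the next day, and fixed and stained after 5 days in one step with final 0.05% Triton X-100, 1% formaldehyde and 1 ug/ml Hoechst. Dosing was a single drug or a fixed anchor-drug dose plus five library-drug doses (not always all listed) in √10 steps, and values are medians of duplicate plates imaged at 4×.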

[3] = compound: COc1cc2ncn(-c3cc(OCc4ccccc4C(F)(F)F)c(C(N)=O)s3)c2cc1OC + CC(=O)Nc1cccc(-n2c(=O)n(C3CC3)c(=O)c3c(Nc4ccc(I)cc4F)n(C)c(=O)c(C)c32)c1 [Trametinib] (partner 0.02 µM)
Summary of the method: as §1

[4] = compound: COc1cc2ncn(-c3cc(OCc4ccccc4C(F)(F)F)c(C(N)=O)s3)c2cc1OC + N=C(N)NC(=N)NCCc1ccccc1 [Phenformin] (partner 250 µM)
Summary of the method: as §1

| Cell Line | relative viability ([1]; 0.05 µM) | relative viability ([1]; 0.1581 µM) | relative viability ([1]; 0.5 µM) | relative viability ([1]; 1.581 µM) | relative viability ([1]; 5 µM) | relative viability ([2]; first compound 0.05 µM) | relative viability ([2]; first compound 0.1581 µM) | relative viability ([2]; first compound 0.5 µM) | relative viability ([2]; first compound 1.581 µM) | relative viability ([2]; first compound 5 µM) | relative viability ([3]; first compound 0.05 µM) | relative viability ([3]; first compound 0.1581 µM) | relative viability ([3]; first compound 0.5 µM) | relative viability ([3]; first compound 1.581 µM) | relative viability ([3]; first compound 5 µM) | relative viability ([4]; first compound 0.05 µM) | relative viability ([4]; first compound 0.1581 µM) | relative viability ([4]; first compound 0.5 µM) | relative viability ([4]; first compound 1.581 µM) | relative viability ([4]; first compound 5 µM) |
| --- | --- | --- | --- | --- | --- | --- | --- | --- | --- | --- | --- | --- | --- | --- | --- | --- | --- | --- | --- | --- |
| NCI-H2405 | 1.13 | 0.769 | 0.665 | 0.428 | 0.351 | 0.795 | 0.809 | 0.326 | 0.312 | 0.331 | 0.672 | 0.412 | 0.47 | 0.367 | 0.311 | 0.437 | 0.274 | 0.29 | 0.322 | 0.246 |
| LXF-289 | 0.977 | 0.82 | 0.674 | 0.132 | 0.0998 | 0.704 | 0.817 | 0.269 | 0.0639 | 0.0504 | 0.685 | 0.551 | 0.491 | 0.142 | 0.0968 | 0.437 | 0.466 | 0.256 | 0.0678 | 0.0402 |
| CAL-12T | 0.827 | 0.836 | 0.565 | 0.249 | 0.193 | 0.563 | 0.676 | 0.415 | 0.189 | 0.188 | 0.387 | 0.278 | 0.272 | 0.178 | 0.161 | 0.524 | 0.339 | 0.21 | 0.153 | 0.138 |
| COR-L23 | 1.05 | 1.03 | 0.692 | 0.128 | 0.147 | 0.307 | 0.282 | 0.138 | 0.0966 | 0.109 | 0.591 | 0.286 | 0.27 | 0.105 | 0.0781 | 0.464 | 0.385 | 0.201 | 0.104 | 0.0889 |
| NCI-H1755 | 0.965 | 1.02 | 0.96 | 0.475 | 0.371 | 0.816 | 0.827 | 0.714 | 0.447 | 0.319 | 0.83 | 0.673 | 0.734 | 0.519 | 0.316 | 0.572 | 0.622 | 0.531 | 0.319 | 0.243 |
| NCI-H1437 | 1.02 | 0.898 | 0.507 | 0.21 | 0.18 | 0.658 | 0.511 | 0.272 | 0.232 | 0.194 | 0.577 | 0.376 | 0.19 | 0.205 | 0.234 | 0.352 | 0.223 | 0.117 | 0.123 | 0.12 |
| NCI-H2085 | 0.925 | 1.03 | 0.759 | 0.402 | 0.407 | 0.658 | 0.721 | 0.481 | 0.367 | 0.306 | 0.332 | 0.614 | 0.421 | 0.221 | 0.2 | 0.719 | 0.725 | 0.367 | 0.234 | 0.251 |
| H3255 | 0.971 | 0.947 | 0.866 | 0.398 | 0.608 | 0.532 | 0.534 | 0.541 | 0.415 | 0.332 | 0.609 | 0.545 | 0.568 | 0.411 | 0.301 | 0.365 | 0.37 | 0.282 | – | 0.304 |
| NCI-H661 | 0.979 | 0.998 | 0.685 | 0.348 | 0.333 | 0.68 | 0.681 | 0.349 | 0.332 | 0.274 | 0.692 | 0.491 | 0.299 | 0.244 | 0.219 | 0.28 | 0.249 | 0.2 | 0.21 | 0.18 |
| LCLC-103H | 1.02 | 1.12 | 0.915 | 0.442 | 0.224 | 0.687 | 0.768 | 0.651 | 0.281 | 0.212 | 0.675 | 0.643 | 0.565 | 0.452 | 0.268 | 0.386 | 0.397 | 0.279 | 0.178 | 0.127 |
| LOU-NH91 | 0.97 | 1.03 | 0.801 | 0.455 | 0.531 | 0.893 | 0.89 | 0.688 | 0.382 | 0.273 | 0.783 | 0.776 | 0.719 | 0.52 | 0.295 | 0.734 | 0.855 | 0.526 | 0.297 | 0.432 |
| NCI-H1650 | 0.899 | 0.951 | 0.396 | 0.19 | 0.147 | 0.757 | 0.659 | 0.305 | 0.114 | 0.204 | 0.631 | 0.515 | 0.35 | 0.143 | 0.139 | 0.389 | 0.341 | 0.175 | 0.129 | 0.179 |
| NCI-H3122 | 1 | 0.872 | 0.317 | 0.145 | 0.173 | 0.682 | 0.585 | 0.149 | 0.141 | 0.146 | 0.209 | 0.213 | 0.143 | 0.135 | 0.155 | 0.362 | 0.37 | 0.16 | 0.143 | 0.128 |
| RERF-LC-KJ | 0.987 | 1.07 | 0.584 | 0.297 | 0.471 | 0.937 | 0.945 | 0.24 | 0.233 | 0.253 | 0.935 | 0.915 | 0.57 | 0.456 | 0.5 | 0.376 | 0.396 | 0.229 | 0.272 | 0.259 |
| NCI-H1651 | 1.05 | 0.992 | 0.77 | 0.398 | 0.221 | 0.18 | 0.157 | 0.15 | 0.14 | 0.153 | 0.86 | 0.788 | 0.755 | 0.593 | 0.702 | 0.318 | 0.304 | 0.132 | 0.102 | 0.117 |
| NCI-H2087 | 1.08 | 0.923 | 0.628 | 0.135 | 0.124 | 0.432 | 0.493 | 0.346 | 0.098 | 0.0728 | 0.239 | 0.196 | 0.143 | 0.0778 | 0.111 | 0.51 | 0.458 | 0.269 | 0.111 | 0.107 |
